Assay results as given in US10526291B2, “Potent dual BRD4-kinase inhibitors as cancer therapeutics” (H. Lee Moffitt Cancer Center and Research Institute, Inc., priority 2014, dated 2020).
“And” between values parts separate entries of the source, which are not always exact repeats. Equal values may be shown once.

How the values were obtained:
BRD3 = target: T1, BRD3 (Homo sapiens, UniProt Q15059); assay: BRD3 IC50 (RB, commercial BRD panel); type: binding
T1 construct: purchased

JAK2 = target: T2, JAK2 (Homo sapiens, UniProt O60674); assay: JAK2 IC50 (RB, commercial kinase panel); type: biochemical
T2 construct: purchased

BRD2 = target: T3, BRD2 (Homo sapiens, UniProt P25440); assay: BRD2 IC50 (RB, commercial BRD panel); type: binding
T3 construct: purchased

MM.1S cells = assay: MM.1S cell survival, MTT assay; type: cell-based; settings: Homo sapiens, MM1.S, 72 h, 72 hours compound exposure
BRD4 [1] = target: T4, BRD4 (Homo sapiens, UniProt O60885); assay: BRD4 IC50 (RB, commercial BRD panel); type: binding
JAK1 = target: T5, JAK1 (Homo sapiens, UniProt P23458); assay: JAK1 IC50 (RB, commercial kinase panel); type: biochemical
T5 construct: purchased

BRD4 [2] = target: T4, BRD4; assay: Differential Scanning Fluorimetry (DSF), stability of BRD4 upon ligand binding; settings: for ΔTm at 4 µM: 100 μM protein, 4 μM compound and 2% DMSO; for IC50: estimated
Method: DSF=Differential Scanning Fluorimetry; provides a measure of the increased stability of BRD4 upon ligand binding The DSF experiment was run at 100 μM protein, 4 μM compound and 2% DMSO.

JAK3 = target: T6, JAK3 (Homo sapiens, UniProt P52333); assay: JAK3 IC50 (RB, commercial kinase panel); type: biochemical
T6 construct: purchased
T6 sequence (P52333 1-1124): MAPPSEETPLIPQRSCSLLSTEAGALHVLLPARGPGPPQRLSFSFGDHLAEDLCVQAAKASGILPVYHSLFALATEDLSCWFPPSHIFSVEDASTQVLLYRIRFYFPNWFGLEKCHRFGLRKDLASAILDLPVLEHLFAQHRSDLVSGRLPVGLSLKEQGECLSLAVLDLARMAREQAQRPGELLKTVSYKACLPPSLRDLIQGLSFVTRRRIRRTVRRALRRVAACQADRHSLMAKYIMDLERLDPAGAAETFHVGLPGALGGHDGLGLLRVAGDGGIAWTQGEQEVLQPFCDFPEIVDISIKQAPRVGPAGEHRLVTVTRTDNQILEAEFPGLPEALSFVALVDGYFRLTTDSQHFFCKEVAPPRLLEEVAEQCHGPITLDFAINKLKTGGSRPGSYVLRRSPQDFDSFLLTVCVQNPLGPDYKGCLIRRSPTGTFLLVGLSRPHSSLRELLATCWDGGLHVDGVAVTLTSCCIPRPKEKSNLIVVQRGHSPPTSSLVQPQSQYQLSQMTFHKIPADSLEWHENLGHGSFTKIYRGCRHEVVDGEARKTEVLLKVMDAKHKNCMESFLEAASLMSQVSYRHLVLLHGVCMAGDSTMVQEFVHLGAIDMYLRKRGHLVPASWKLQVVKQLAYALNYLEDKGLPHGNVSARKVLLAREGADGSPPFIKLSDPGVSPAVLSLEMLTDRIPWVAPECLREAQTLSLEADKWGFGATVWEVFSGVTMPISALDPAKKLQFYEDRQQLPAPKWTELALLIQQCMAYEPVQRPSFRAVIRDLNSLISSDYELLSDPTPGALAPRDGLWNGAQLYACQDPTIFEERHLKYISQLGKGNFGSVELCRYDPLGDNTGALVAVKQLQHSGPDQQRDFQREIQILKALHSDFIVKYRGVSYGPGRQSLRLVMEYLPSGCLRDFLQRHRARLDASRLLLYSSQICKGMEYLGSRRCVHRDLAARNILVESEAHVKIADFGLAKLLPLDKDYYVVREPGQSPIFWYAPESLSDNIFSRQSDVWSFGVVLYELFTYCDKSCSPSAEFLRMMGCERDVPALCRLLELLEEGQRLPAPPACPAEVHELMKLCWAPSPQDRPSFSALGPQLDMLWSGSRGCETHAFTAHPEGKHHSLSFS

BRDT = target: T7, BRDT (Homo sapiens, UniProt Q58F21); assay: BRDT IC50 (RB, commercial BRD panel); type: binding
T7 construct: purchased

HEK293 = HEK293 cell IC50; type: cell-based; settings: Homo sapiens
SAOS-2 = SAOS-2 cell IC50; type: cell-based; settings: Homo sapiens
UKE-1 = UKE-1 cell IC50; type: cell-based; settings: UKE1
FLT3 = target: T8, FLT3 (Homo sapiens, UniProt P36888); assay: FLT3 IC50 (RB, commercial kinase panel); type: biochemical
T8 construct: purchased
T8 sequence (P36888 27-993): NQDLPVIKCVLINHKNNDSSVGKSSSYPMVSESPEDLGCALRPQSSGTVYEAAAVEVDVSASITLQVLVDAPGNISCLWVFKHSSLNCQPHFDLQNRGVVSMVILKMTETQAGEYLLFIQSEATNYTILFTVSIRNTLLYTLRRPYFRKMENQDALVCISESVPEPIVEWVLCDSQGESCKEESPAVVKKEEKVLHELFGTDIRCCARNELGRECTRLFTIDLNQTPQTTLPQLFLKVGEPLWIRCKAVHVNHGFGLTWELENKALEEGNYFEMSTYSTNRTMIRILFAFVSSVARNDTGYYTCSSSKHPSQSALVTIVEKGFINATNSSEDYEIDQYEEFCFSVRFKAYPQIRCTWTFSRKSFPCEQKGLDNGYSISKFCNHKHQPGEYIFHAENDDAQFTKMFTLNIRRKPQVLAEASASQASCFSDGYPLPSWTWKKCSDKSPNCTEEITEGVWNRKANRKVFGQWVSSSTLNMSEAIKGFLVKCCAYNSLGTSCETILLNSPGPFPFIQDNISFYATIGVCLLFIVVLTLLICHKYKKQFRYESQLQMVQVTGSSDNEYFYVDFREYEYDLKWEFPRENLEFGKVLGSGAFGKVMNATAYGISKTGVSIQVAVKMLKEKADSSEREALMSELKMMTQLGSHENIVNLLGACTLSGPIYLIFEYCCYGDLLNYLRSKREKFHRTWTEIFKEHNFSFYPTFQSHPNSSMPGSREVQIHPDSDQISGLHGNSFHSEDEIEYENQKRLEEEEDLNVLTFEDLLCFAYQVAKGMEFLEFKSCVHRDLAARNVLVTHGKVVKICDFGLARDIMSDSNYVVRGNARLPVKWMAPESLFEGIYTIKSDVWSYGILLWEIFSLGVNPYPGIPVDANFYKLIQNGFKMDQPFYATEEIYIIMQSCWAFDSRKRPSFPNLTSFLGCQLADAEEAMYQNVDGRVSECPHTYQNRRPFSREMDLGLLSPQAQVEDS

NCI-H2052 = NCI-H2052 cell IC50; type: cell-based; settings: Homo sapiens
MV4-11 AML cells = assay: MV-4-11 cell IC50 (antiproliferative activity); type: cell-based; settings: Homo sapiens
Method: Cellular activity of promising compounds is assessed using MM.1S and MV4-11 AML cells using c-Myc levels as biomarker (6-12 hr treatment) and antiproliferative activity (48-72 hr treatment) as described (Ciceri et al., Dual kinase-bromodomain inhibitors for rationally designed polypharmacology. Nat Chem Biol 2014).

BRD4-1 = target: T9, BRD4-1 (Homo sapiens, UniProt O60885); assay: BRD4-1 IC50; type: binding
T9 construct: BRD4-1; purchased

BRD4-2 = target: T10, BRD4-2 (Homo sapiens, UniProt O60885); assay: BRD4-2 IC50; type: binding
T10 construct: BRD4-2; purchased

BRDT-1 = target: T11, BRDT-1 (Homo sapiens, UniProt Q58F21); assay: BRDT-1 IC50; type: binding
T11 construct: BRDT-1; purchased

T1 sequence (Q15059 whole entry): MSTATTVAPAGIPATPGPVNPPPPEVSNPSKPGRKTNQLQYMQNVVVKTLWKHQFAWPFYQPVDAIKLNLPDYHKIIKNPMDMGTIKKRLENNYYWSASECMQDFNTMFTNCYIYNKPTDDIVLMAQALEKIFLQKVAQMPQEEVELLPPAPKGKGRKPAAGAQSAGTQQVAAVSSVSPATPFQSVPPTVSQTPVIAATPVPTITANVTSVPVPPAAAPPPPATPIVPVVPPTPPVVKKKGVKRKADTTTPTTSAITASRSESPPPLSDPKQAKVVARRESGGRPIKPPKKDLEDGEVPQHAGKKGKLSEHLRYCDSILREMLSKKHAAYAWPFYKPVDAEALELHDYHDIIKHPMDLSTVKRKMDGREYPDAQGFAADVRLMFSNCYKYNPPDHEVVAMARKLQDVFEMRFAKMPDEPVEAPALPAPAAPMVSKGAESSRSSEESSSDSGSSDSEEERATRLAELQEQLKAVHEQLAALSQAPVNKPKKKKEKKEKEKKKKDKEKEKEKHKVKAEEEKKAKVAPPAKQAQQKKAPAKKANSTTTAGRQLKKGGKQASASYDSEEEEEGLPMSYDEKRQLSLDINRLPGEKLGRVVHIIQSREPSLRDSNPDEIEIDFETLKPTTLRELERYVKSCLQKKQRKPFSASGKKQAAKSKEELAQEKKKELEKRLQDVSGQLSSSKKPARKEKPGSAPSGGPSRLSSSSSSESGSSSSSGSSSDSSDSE
T2 sequence (O60674 whole entry): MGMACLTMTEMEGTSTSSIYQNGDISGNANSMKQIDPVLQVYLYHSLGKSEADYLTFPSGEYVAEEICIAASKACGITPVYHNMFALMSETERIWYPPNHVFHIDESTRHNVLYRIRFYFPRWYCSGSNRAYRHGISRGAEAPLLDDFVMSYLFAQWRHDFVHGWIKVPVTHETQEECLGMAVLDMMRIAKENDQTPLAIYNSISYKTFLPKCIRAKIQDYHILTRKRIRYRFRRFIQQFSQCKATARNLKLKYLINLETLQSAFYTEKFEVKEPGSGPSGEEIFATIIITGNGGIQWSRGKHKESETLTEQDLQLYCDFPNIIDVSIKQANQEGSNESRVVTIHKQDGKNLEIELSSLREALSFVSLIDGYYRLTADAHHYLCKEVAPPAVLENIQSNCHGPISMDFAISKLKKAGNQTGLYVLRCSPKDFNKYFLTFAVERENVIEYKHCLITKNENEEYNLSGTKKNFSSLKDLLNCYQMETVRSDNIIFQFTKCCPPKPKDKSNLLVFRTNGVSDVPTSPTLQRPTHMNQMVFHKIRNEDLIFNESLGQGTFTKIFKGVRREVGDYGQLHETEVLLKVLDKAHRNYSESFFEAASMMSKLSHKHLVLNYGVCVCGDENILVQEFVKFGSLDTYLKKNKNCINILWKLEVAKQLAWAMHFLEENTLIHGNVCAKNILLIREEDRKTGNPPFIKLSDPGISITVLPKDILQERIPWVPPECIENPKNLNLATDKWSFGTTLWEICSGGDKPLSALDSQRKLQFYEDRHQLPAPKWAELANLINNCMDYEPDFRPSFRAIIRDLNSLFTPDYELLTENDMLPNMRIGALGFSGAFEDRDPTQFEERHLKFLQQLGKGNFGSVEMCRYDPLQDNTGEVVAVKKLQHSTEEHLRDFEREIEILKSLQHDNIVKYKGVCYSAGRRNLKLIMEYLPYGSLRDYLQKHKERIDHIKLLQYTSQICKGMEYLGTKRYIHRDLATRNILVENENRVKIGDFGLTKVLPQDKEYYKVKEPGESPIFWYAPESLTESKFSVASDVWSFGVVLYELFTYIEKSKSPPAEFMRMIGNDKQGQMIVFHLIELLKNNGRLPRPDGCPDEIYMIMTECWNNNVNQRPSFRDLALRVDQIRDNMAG
T5 sequence (P23458 whole entry): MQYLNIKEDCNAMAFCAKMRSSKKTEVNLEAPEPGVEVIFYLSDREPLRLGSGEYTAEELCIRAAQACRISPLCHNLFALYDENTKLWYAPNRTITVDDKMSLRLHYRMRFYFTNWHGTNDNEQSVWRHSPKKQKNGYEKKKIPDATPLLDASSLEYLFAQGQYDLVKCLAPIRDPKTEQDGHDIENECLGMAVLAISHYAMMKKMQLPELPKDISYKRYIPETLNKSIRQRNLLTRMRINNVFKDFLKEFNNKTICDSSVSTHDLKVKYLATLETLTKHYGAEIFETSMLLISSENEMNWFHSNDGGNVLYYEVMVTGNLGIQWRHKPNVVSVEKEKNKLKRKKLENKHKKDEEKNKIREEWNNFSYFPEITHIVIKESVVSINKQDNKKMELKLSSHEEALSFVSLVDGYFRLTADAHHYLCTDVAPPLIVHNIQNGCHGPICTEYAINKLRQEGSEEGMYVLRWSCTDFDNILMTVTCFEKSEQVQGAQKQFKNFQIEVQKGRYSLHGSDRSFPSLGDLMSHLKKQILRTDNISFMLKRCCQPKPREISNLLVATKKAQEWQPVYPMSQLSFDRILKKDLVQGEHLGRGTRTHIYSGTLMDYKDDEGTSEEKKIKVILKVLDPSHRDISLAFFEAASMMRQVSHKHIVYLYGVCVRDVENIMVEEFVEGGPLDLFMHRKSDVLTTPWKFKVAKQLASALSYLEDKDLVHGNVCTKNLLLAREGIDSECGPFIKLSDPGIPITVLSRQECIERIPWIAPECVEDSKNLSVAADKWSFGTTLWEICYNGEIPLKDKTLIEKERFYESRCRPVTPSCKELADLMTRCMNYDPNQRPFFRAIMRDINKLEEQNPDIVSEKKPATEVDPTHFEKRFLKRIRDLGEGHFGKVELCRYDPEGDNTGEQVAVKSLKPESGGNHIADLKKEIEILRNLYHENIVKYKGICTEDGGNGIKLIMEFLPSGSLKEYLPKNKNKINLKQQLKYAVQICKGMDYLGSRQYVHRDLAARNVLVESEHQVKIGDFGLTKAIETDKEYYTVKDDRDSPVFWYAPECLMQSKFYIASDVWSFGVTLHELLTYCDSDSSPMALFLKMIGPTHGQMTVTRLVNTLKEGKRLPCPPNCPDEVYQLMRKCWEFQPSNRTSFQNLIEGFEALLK
T3 sequence (P25440 whole entry): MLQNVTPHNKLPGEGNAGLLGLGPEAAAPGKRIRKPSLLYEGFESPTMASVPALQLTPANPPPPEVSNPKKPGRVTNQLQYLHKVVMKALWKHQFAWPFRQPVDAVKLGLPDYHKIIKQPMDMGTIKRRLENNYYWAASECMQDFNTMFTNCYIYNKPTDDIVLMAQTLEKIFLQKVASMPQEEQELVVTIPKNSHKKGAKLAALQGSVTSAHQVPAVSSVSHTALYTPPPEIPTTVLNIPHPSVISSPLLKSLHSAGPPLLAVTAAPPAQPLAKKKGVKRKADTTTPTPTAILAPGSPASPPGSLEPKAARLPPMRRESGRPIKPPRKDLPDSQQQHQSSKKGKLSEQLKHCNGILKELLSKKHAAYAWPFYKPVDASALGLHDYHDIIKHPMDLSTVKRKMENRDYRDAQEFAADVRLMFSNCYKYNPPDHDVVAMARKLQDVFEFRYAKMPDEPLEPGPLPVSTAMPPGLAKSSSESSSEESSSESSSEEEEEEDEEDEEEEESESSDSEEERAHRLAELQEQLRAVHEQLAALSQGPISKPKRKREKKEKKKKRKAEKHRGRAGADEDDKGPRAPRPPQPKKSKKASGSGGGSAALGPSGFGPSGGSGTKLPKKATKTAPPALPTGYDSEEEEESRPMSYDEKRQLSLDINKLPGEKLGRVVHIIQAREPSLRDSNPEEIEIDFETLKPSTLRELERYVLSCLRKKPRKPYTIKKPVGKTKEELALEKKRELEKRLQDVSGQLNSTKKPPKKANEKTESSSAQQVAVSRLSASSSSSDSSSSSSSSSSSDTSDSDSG

COc1cc(Nc2nc(Nc3ccc(N4CCN(C)CC4)cc3)ncc2C)ccc1Cl
IC50 (BRD3): 1140 nM
IC50 (JAK2): 0.69 nM
IC50 (BRD2): 2800 nM
IC50 (MM.1S cells): 420 nM
IC50 (BRD4 [1]; read-out: BRD4 IC50): 617 nM
IC50 (BRD4 [1]; read-out: BRD4 IC50 (RB)): 617 nM
IC50 (JAK1): 1.83 nM
ΔTm at 4 µM (BRD4 [2]): 5.6 ± 0.082 °C
IC50 (BRD4 [2]): 290 nM
IC50 (JAK3): 9.06 nM
IC50 (BRDT): 1400 nM
IC50 (HEK293): 380 nM

Cc1cnc(Nc2ccc(N3CCN(C)CC3)cc2)nc1Nc1cccc(NS(=O)(=O)C(C)(C)C)c1
IC50 (BRD3): 12.5 nM
IC50 (SAOS-2): 184 nM
IC50 (BRD2): 625 nM
IC50 (MM.1S cells): 400 nM
IC50 (BRD4 [1]; read-out: BRD4 IC50): 10.2 nM
IC50 (JAK1): 4.58 nM
IC50 (UKE-1): 260 nM
ΔTm at 4 µM (BRD4 [2]): 8.54 ± 0.088 °C
IC50 (BRD4 [2]): 25 nM
IC50 (FLT3): 0.917 nM
IC50 (JAK3): 91.4 nM
IC50 (BRDT): 29.1 nM
IC50 (HEK293): 1200 nM

Cc1cnc(Nc2ccc(N3CCN(C)CC3)c(F)c2)nc1Nc1cccc(NS(=O)(=O)C(C)(C)C)c1
IC50 (NCI-H2052): 1400 nM
IC50 (JAK2): 1.14 nM
IC50 (SAOS-2): 133 nM
IC50 (MM.1S cells): 160 nM
IC50 (MV4-11 AML cells): 26.8 nM
IC50 (UKE-1): 200 nM
IC50 (BRD4-1): 24.3 nM
ΔTm at 4 µM (BRD4 [2]): 9.5 ± 0.14 °C
IC50 (BRD4 [2]): 14 nM and 3.9 nM
IC50 (FLT3): 1.1 nM
IC50 (BRD4-2): 22 nM
IC50 (BRDT-1): 41.3 nM

Cc1cnc(Nc2ccc(N3CCN(C)CC3)c(F)c2)nc1Nc1ccc(Cl)c(NS(=O)(=O)C(C)(C)C)c1
IC50 (NCI-H2052): 2500 nM
IC50 (SAOS-2): 320 nM
IC50 (MM.1S cells): 59 nM
IC50 (MV4-11 AML cells): 53.2 nM
IC50 (UKE-1): 294 nM
IC50 (BRD4-1): 11.2 nM
ΔTm at 4 µM (BRD4 [2]): 11 ± 0.04 °C
IC50 (BRD4 [2]): 4.8 nM and 1.3 nM
IC50 (FLT3): 10.7 nM
IC50 (BRD4-2): 17.5 nM
IC50 (BRDT-1): 19 nM
